Assay results: patent US6987088B2, “Compounds that bind HER2” (Genentech, Inc., priority 1999, dated 2006)
“Also recorded” adds a separate entry of the source. Where no end group is shown, it is not given here.

What was measured:
[1] = molecular target: T1, HER2-ECD (Homo sapiens, UniProt P04626); test: HER2 competition ELISA (block binding of 1.1.FI-Zb to immobilized HER2-ECD); details: for HER2 binding activity of Superdex 75 fractions (active species): monomer and dimer fractions assayed in HER2 competition ELISA; for IC50: read-out: IC50, block binding of 1.1.FI-Zb to immobilized HER2, HER2 competition ELISA, 40 nM biotinylated 1.1.FI-Z
T1 construct: immobilized extracellular domain of Erb2 (HER2-ECD, Hudziak et al. (1991) J. Biol. Chem. 266:24109-15)
Description: By way of exemplification and not limitation an ELISA assay can be conducted wherein microtiter plates (for example, Nunc Maxisorp™ 96-well plates, Inter Med, Denmark) are coated with HER2-ECD in 50 mM ammonium bicarbonate, pH 9.3, using 5 μg/ml, overnight at 4° C. Wells can be blocked using PBS containing 1% BSA (PBS-BSA) for 1 hr at 25° C. […] Following an incubation of about 1 hour the plate is washed with PBS-TWEEN and Strepavidin-HRP is added for about 30 min. Plates are washed again with PBS-TWEEN and the bound HRP assayed using ABTS/H2O2 substrate. The change in absorbance at 405 nm is monitored. Decrease in absorbance is plotted vs. sample concentration and an IC50 for each candidate peptide ligand is determined.
Following a 1 h incubation the plate was washed with PBS-Tween and Strepavidin/HRP conjugate (Streptavidin-POD, Roche Molecular Biochemicals) was added for 30 min. Plates were washed again with PBS-Tween and the bound HRP was assayed using ABTS/H2O2 substrate (Kirkegaard & Perry Laboratories) and the absorbance at 405 nm was monitored. […] Fractions from the HPLC were tested for their ability to compete in the HER2 competition ELISA.

[2] = molecular target: T2, HER2 expressed on cells (Homo sapiens, UniProt P04626); test: Cell binding by FACS analysis (BT 474, MDA 361, BaF3); assay type: cell-based; details: BT 474 (3×10^6 receptors/cell), MDA 361 (4×10^5 receptors/cell), BaF3 (no HER2); 0, 0.5 or 5 μM
T2 construct: Cells expressing HER2 (BT 474 [3+], MDA 361 [2+], and BaF3 [0+]); endogenous in cells; host or cells: BT 474, MDA 361 (BaF3 as control line without HER2)

[3] = molecular target: T1, HER2-ECD; test: Phage binding assay, immobilized HER2-ECD
Description: (§1) • Selection Conditions—HER2-ECD was immobilized directly to maxisorp plates in 50 mM ammonium bicarbonate, pH 9.3, using 5 μg/ml, overnight at 4° C. Wells were blocked using PBS containing 1% BSA (PBS-BSA) for 1 hr at 25° C. Phage from each pool were incubated in wells containing HER2-ECD in PBS-BSA for 3 hr at 25° C.; generally about 5×10^10 phage were added at the beginning of each round. Unbound phage were removed by repetitive washing with PBS containing 0.05% Tween 20 (PBS-Tween); remaining phage were eluted with 500 mM KCl, 10 mM HCl, pH 2. The eluted phage were then amplified in XL1-Blue cells with VCSM13 helper phage (Stratagene) overnight at 37° C. IPTG (10 μM) was added only to the initial phage libraries and during amplification following round 1; later rounds relied on basal expression of the tac promoter for production of peptide-pVIII expression. Enrichment was monitored by titering the number of phage which bound to a target coated well compare to a well coated with BSA. • HER2 Phage Binding Assay—Inhibition of binding of phage displaying a single copy of peptide 1.1FI (Table 1) on their surface to the immobilized extracellular domain of Erb2 (HER2-ECD, Hudziak et al. (1991) J. Biol. Chem. 266:24109-15) was monitored using a phage ELISA. HER2-ECD was immobilized directly to Maxisorp plates (Nunc) in 50 mM ammonium bicarbonate, pH 9.3, using 5 μg/ml, overnight at 4° C. Wells were blocked using PBS containing 1% BSA (PBS-BSA) for 1 h at 25° C. Dilutions of 1.1FI-Fc in PBS-BSA were tested for their ability to block the binding of 1.1FI displaying phage to the immobilized HER2-ECD. The microtiter plate was washed with PBS containing 0.05% Tween20 (PBS-Tween) and the phage bound to HER2-ECD were detected with an anti-gVIII/HRP monoclonal antibody conjugate (Amersham Pharmacia Biotech). The amount of HRP bound Was measured using ABTS/H2O2 substrate and monitoring the change at 405 nm. Results • Selection of Polyvalent Peptide-Phage That Bind to HER2-ECD—Polyvalent peptide libraries were sorted in 7 pools (Table 1) against immobilized HER2-ECD. […]

[4] = molecular target: HER3 (Homo sapiens, UniProt P21860); test: Phage binding assay, HER3
[5] = molecular target: HER4 (Homo sapiens, UniProt Q15303); test: Phage binding assay, HER4
[6] = molecular target: BSA (Bos taurus, UniProt P02769); test: Phage binding assay, immobilized BSA
Description: as §1

[7] = molecular target: T3, immobilized HER2 (Homo sapiens, UniProt P04626); test: Binding of Class 1 and Class 7 phage clones to immobilized HER2 in the presence of peptide
T3 construct: immobilized extracellular domain of Erb2 (HER2-ECD, Hudziak et al. (1991) J. Biol. Chem. 266:24109-15)

Sequence of BSA (P02769 25-607): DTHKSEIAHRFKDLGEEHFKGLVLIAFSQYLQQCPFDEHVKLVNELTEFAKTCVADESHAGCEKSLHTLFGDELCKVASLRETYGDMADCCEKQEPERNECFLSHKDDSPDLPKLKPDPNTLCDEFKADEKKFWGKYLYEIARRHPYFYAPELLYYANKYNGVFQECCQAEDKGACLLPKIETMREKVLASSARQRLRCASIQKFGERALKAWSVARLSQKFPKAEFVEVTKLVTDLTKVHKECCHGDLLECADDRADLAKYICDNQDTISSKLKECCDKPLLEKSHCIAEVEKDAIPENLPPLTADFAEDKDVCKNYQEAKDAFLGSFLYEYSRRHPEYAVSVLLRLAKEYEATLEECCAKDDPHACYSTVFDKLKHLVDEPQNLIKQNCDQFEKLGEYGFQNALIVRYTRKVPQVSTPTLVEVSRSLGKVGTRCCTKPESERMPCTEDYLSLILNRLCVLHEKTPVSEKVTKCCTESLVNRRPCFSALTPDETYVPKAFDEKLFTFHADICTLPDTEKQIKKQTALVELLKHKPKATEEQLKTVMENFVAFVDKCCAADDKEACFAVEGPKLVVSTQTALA
Sequence of HER3 (P21860 20-1342, species assumed): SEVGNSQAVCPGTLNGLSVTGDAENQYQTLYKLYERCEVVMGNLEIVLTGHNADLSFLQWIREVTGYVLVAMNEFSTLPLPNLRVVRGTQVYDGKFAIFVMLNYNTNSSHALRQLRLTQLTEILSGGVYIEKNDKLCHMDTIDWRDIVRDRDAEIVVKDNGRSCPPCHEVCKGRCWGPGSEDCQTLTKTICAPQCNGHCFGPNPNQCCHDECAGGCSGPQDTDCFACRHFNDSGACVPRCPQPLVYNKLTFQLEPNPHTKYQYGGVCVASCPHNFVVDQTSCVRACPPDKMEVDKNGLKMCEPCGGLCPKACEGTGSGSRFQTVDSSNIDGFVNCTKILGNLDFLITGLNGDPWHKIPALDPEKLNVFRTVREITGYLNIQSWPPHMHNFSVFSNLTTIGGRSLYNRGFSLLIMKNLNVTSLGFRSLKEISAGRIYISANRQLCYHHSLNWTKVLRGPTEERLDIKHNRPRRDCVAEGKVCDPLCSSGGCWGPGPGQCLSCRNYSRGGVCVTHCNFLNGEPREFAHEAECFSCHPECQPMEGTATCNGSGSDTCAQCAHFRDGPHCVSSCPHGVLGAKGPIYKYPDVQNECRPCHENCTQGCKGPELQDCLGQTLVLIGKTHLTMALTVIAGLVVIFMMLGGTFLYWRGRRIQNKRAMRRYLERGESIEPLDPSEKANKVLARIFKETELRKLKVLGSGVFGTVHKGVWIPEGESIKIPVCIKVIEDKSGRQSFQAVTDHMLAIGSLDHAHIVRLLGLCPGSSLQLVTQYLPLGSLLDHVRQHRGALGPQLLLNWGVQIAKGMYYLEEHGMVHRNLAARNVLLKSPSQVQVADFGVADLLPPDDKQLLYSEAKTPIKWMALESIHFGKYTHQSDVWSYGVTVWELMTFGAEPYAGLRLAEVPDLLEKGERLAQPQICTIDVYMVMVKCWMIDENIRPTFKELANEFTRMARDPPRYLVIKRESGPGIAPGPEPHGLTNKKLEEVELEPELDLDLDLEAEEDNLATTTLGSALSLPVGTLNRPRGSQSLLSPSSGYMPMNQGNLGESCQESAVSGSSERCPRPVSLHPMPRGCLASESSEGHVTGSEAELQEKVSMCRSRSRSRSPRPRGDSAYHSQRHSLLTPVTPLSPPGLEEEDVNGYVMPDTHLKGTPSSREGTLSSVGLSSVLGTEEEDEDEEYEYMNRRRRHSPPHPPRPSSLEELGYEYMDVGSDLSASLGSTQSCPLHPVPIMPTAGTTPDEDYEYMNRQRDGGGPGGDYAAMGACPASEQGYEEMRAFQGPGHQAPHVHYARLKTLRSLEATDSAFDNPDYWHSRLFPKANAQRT
Sequence of HER4 (Q15303 26-1308, species assumed): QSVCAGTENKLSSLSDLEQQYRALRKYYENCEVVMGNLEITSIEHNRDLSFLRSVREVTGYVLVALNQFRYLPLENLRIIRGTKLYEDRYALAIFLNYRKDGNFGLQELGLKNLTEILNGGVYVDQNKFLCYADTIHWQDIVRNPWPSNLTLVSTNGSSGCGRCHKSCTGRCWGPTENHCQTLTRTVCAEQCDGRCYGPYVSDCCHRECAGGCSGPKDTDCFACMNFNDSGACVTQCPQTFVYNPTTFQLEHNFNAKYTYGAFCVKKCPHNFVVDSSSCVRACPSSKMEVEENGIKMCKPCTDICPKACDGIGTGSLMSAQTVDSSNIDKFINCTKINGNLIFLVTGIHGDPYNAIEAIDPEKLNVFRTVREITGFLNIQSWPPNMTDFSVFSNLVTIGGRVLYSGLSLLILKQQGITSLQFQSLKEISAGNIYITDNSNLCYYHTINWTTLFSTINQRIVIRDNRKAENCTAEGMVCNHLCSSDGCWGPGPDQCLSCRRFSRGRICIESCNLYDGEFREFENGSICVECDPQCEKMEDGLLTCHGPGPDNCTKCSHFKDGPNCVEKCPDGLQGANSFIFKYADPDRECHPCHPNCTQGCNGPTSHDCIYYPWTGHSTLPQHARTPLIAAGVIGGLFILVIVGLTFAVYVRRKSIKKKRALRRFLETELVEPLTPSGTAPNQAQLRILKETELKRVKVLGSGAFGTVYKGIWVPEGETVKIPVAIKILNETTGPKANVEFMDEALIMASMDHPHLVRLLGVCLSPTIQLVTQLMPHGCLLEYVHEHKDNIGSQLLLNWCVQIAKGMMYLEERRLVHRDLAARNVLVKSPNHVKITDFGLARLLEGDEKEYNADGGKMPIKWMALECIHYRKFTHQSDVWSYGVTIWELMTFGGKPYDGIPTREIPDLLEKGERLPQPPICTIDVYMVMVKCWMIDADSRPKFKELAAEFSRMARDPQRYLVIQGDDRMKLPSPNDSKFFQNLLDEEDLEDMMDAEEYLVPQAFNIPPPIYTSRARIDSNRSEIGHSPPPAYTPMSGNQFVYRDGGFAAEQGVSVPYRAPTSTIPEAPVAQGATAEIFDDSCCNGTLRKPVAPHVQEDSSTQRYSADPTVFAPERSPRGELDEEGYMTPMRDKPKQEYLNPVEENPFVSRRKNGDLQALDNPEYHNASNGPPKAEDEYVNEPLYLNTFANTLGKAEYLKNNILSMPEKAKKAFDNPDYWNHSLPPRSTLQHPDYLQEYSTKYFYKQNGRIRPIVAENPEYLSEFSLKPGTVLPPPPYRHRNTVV

Row | Substance | Phage binding to immobilized HER2-ECD [3] | Phage binding to HER3 [4] | Phage binding to HER4 [5] | Phage binding to immobilized BSA [6] | other results
1 | 1.1.FI-Z: peptide 1.1.FI expressed and secreted from E. coli as a fusion to the Z domain of protein A (QVYESWGCIGPGCACLQACL) | – | – | – | – | HER2 binding activity of Superdex 75 fractions (active species) [1]: coincided with the dimer fractions rather than the monomer fractions; also recorded: coinciding with dimer fractions; IC50 [1]: 50 nM
2 | 1.1.FI-Zb: biotinylated 1.1.FI-Z preparation (QVYESWGCIGPGCACLQACL; cysteine pairing not given here; also: biotinylated (NHS-LC-biotin), fused to Z domain (not in chain)) | – | – | – | – | Binding to cells by FACS [2]: bind cells proportional to the number of HER2 receptors expressed on the cell
3 | (FI)2-Z: 1.1.FI sequence repeated twice and fused to the Z domain of protein A, single chain dimer (QVYESWGCIGPGCACLQACLGGGSGGQVYESWGCIGPGCACLQACL; cysteine pairing not given here; also: fused to the Z domain of protein A (end not given here)) | – | – | – | – | HER2 binding activity of Superdex 75 fractions (active species) [1]: the active species was now identified as monomer; HER2 binding activity of Superdex 75 fractions (active species) ([1]; listed as (1.1FI)2-Z): coinciding with monomer fractions
4 | CSWVLVQCGGEWWHCCGLGCGLVVNAC (cysteine pairing not given here) [7.1] | bind | not | not | not | –
5 | R S C A D V A S R C W E H C I T [5.1] | bind | not | not | not | –
6 | YEVEAWDCMGPGCANLFEAH [1.1] | bind | not | not | not | –
7 | YSFEGWGCIGPGCAYLFEGH (cysteine pairing not given here) [HER201] | – | – | – | – | Blocking of binding of Class 1 and Class 7 phage to immobilized HER2 [7]: block the binding of both Class 1 and Class 7 phage
8 | active fraction: HPLC fraction of trypsin-digested 1.1.FI-Z; mass corresponding to HER212 sequence, found to contain dimer (QVYESWGCIGPGCACLQACL; cysteine pairing not given here; also: fraction found to contain dimer) | – | – | – | – | IC50 [1]: 3 nM
